What was measured:
[1] = system: T. cruzi Tulahuen trypomastigotes; experiment: T. cruzi trypomastigote assay (Cell Titer-Glo viability, ATP luminescence); assay type: cell-based, Trypanosoma cruzi; conditions: for Trypomastigotes pIC50 48 hours: 48 hours incubation; for Trypomastigotes pIC50 48 hours / Trypomastigotes pIC50 72 hours: pIC50 = -log10 IC50 in molar units; for Trypomastigotes pIC50 72 hours: 72 hours incubation; for 72 pIC50 (trypomastigotes, raw data of Fig 1D): 72 hours, plotted values, censored values given without sign; for 48 pIC50 / 72 pIC50: trypomastigote assay; for 48 pIC50: 48 h; for 72 pIC50: 72 h
Method in brief: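 Compounds were tested in dose response or once at a final 5 μM against 5 × 10^4 trypomastigotes per well (DMEM, 2% FBS), collected on days 5–8 from LLC-MK2 infected cultures. ATP luminescence via CellTiter-Glo reports live parasites; DMSO defines 0% and cell-free wells 100% effect.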

[2] = system: T. cruzi intracellular amastigotes in H9c2 cells; experiment: Rate-of-Kill (RoK) high-content imaging assay, amastigotes per cell (AM/CELL) and curve descriptors; assay type: cell-based, Trypanosoma cruzi; design: key to ME_24h / ME_48h / ME_72h: % reduction in parasite burden (cidal response); t50pct_MCC50 / t50pct_Cmax: unit not given here; conditions: for ME_24h: 24h; for ME_48h: 48h; for ME_72h: 72h; for t50%_Cmax / tlag_Cmax / t50pct_Cmax: at Cmax; for ME_24h (%): maximum effect at 24 h; for ME_24h (%) / ME_48h (%) / ME_72h (%): RoK assay; for ME_48h (%): maximum effect at 48 h; for ME_72h (%): maximum effect at 72 h; for ME 24h (maximum effect at 24 hours, intracellular amastigotes): maximum percentage of parasite burden reduction reached by any concentration
Method in brief: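 Readouts at each time point are amastigotes per cell and host nuclei count (cytotoxicity), from DRAQ5 high-content imaging. Infection: trypomastigotes on H9c2 at MOI 8 for 18 h. Dosing was 5 μM single point or 11 points, 1/3 steps from 50 μM. Effect scaled between 4 h infected and uninfected controls.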

TcCYP51 = conditions: formerly reported; cited from earlier work

Row | Compound | Trypomastigotes pIC50 48 hours [1] | Trypomastigotes pIC50 72 hours [1] | ME_24h ([2]; figure 5) | ME_48h ([2]; figure 5) | ME_72h ([2]; figure 5) | MCCE ([2]; RoK curve descriptor) [µM] | AM/CELL NORM ([2]; Time 4, sheet figure 4 A) | AM/CELL NORM ([2]; Time 24, sheet figure 4 A) | AM/CELL NORM ([2]; Time 48, sheet figure 4 A) | tlag_Cmax [2] [h] | t50pct_Cmax ([2]; figure 5) | tlag_Cmax ([2]; figure 5) | t50pct_MCC50 ([2]; at MCC50, figure 5) | tlag_MCC50 ([2]; at MCC50, figure 5) | MCCE ([2]; figure 5) | ME_24h (%) [2] [%] | ME_48h (%) [2] [%] | ME_72h (%) [2] [%] | ME 24h (maximum effect at 24 hours, intracellular amastigotes) [2] [%] | CYP51 pIC50 (TcCYP51) | also measured
1 | O=C(CSc1ccc(F)cc1)N[C@@H](Cc1cnc[nH]1)C(=O)NCCc1ccccc1.O=C(O)C(F)(F)F [TCMDC-143317] | < 4.3 | < 4.3 | -217.337 | -137.825 | 44.5659 | 1.2 | -0.3431 | -195.022 | -169.506 | 24.0 | 72 | 24 | 72 | 48 | 1.235 | -217.3 | -137.8 | 44.6 | -157.067 | 7.1 | 72 pIC50 (trypomastigotes, raw data of Fig 1D) [1]: < 4.3; 48 pIC50 ([1]; figure 1A): < 4.3; 72 pIC50 ([1]; figure 1A): < 4.3; 72 pIC50 ([1]; figure 1B): < 4.3; MCC50 ([2]; RoK curve descriptor): 50.0 µM; AM/CELL NORM ([2]; Time 72, sheet figure 4 A): 59.3586; t50%_Cmax [2]: 72.0 h; t50%_MCC50 ([2]; at MCC50): 72.0 h; tlag_MCC50 ([2]; at MCC50): 24.0 h; MCC50 ([2]; figure 5): 50 µM
2 | CCOc1cnn(C)c(=O)c1Nc1ccc(C(=O)NCc2ccc(F)cc2)cc1 [TCMDC-143319] | < 4.3 | < 4.3 | -74.4049 | -82.6884 | 13.1125 | 0.2 | -4.52 | -105.903 | -82.6884 | 24.0 | 72 | 24 | 72 | 72 | 0.2058 | -74.4 | -82.7 | 13.1 | -74.4049 | 5.4 | 72 pIC50 (trypomastigotes, raw data of Fig 1D) [1]: < 4.3; 48 pIC50 ([1]; figure 1A): < 4.3; 72 pIC50 ([1]; figure 1A): < 4.3; 72 pIC50 ([1]; figure 1B): < 4.3; AM/CELL NORM ([2]; Time 72, sheet figure 4 A): -13.3312; MCC50 ([2]; figure 5): 50 µM
3 | O=C(NC1C(=O)N(c2ccccc2)C1c1cccnc1)c1ccc(Cl)s1 (stereo not drawn) [TCMDC-143324] | < 4.3 | < 4.3 | -26.8888 | -112.607 | -10.0757 | 0.07 | -16.6269 | -26.8888 | -112.607 | 72.0 | 72 | 72 | 72 | 72 | 0.06859 | -26.9 | -112.6 | -10.1 | -26.8888 | 6.7 | 72 pIC50 (trypomastigotes, raw data of Fig 1D) [1]: < 4.3; 48 pIC50 ([1]; figure 1A): < 4.3; 72 pIC50 ([1]; figure 1A): < 4.3; 72 pIC50 ([1]; figure 1B): < 4.3; AM/CELL NORM ([2]; Time 72, sheet figure 4 A): -155.468; MCC50 ([2]; figure 5): 50 µM
4 | CCn1nccc1CN(C)C(=O)C=Cc1ccc(Cl)cc1 [TCMDC-143325] | < 4.3 | < 4.3 | -25.9716 | -135.889 | 23.6762 | 0.6 | 13.1334 | -25.9716 | -135.889 | 48.0 | 72 | 48 | 72 | 72 | 0.6173 | -26.0 | -135.9 | 23.7 | -25.9716 | 6.5 | 72 pIC50 (trypomastigotes, raw data of Fig 1D) [1]: < 4.3; 48 pIC50 ([1]; figure 1A): < 4.3; 72 pIC50 ([1]; figure 1A): < 4.3; 72 pIC50 ([1]; figure 1B): < 4.3; AM/CELL NORM ([2]; Time 72, sheet figure 4 A): 23.6762; MCC50 ([2]; figure 5): 50 µM
5 | Cc1[nH]nc2c1C(c1ccc(OCc3ccccc3F)cc1)SCC(=O)N2 (stereo not drawn) [TCMDC-143328] | 5.1 | 5.1 | 2.825 | -7.539 | -52.7101 | 5.6 | 25.0577 | -15.4729 | -7.539 | 24.0 | 72 | 24 | 72 | 72 | 5.556 | 2.8 | -7.5 | -52.7 | 2.825 | < 4 | 72 pIC50 (trypomastigotes, raw data of Fig 1D) [1]: 5.1; 48 pIC50 ([1]; figure 1A): 5.1; 72 pIC50 ([1]; figure 1A): 5.1; 72 pIC50 ([1]; figure 1B): 5.1; AM/CELL NORM ([2]; Time 72, sheet figure 4 A): -52.7101; MCC50 ([2]; figure 5): 50 µM
6 | CCCN(Cc1ccc(OC)c(OC)c1)Cc1cc(=O)c2c(C)cc(C)cc2[nH]1 [TCMDC-143331] | 5.4 | 5.6 | 53.5839 | 70.4309 | 85.455 | 1.9 | 14.9494 | 52.9561 | 75.3164 | 4.0 | 24 | 4 | 48 | 4 | 1.852 | 53.6 | 70.4 | 85.5 | 54.2116 | 4.5 | activity in trypomastigotes assay (in words) ([1]; 48 and 72 hours): active; ME (maximum effect) in RoK assay (in words) [2]: high values in ME at the different times; tlag (in words) [2]: short tlag; MCC50 ([2]; RoK curve descriptor): 27.8 µM; AM/CELL NORM ([2]; Time 72, sheet figure 4 A): 72.8804; t50%_Cmax [2]: 24.0 h; t50%_MCC50 ([2]; at MCC50): 48.0 h; tlag_MCC50 ([2]; at MCC50): 4.0 h; MCC50 ([2]; figure 5, in µM): 27.7778
7 | CC(C)(C)C(Cn1ccnc1)NC(=O)c1ccc2nc(C3CC3)oc2c1 (stereo not drawn) [TCMDC-143336] | 5 | < 4.3 | -64.3403 | -179.917 | -53.9696 | 0.2 | 3.062 | -93.0977 | -442.656 | 48.0 | 72 | 48 | 72 | 72 | 0.2058 | -64.3 | -179.9 | -54.0 | -64.3403 | 7 | AM/CELL NORM ([2]; Time 72, sheet figure 4 A): -139.753; MCC50 ([2]; figure 5): 50 µM
8 | c1ccc(CCNCc2cncc3nc(-c4cnccn4)n(C4CCCCC4)c23)cc1 [TCMDC-143346] | < 4.3 | < 4.3 | -174.15 | -60.952 | 17.2662 | 0.2 | -7.276 | -174.15 | -60.952 | 24.0 | 72 | 24 | 72 | 72 | 0.2058 | -174.2 | -61.0 | 17.3 | -174.15 | 7 | 72 pIC50 (trypomastigotes, raw data of Fig 1D) [1]: < 4.3; 48 pIC50 ([1]; figure 1A): < 4.3; 72 pIC50 ([1]; figure 1A): < 4.3; 72 pIC50 ([1]; figure 1B): < 4.3; AM/CELL NORM ([2]; Time 72, sheet figure 4 A): 6.4629; MCC50 ([2]; figure 5): 50 µM
9 | CC(=O)Nc1ccc(-c2noc(CC3CCCN(Cc4cccc(F)c4C)C3)n2)cc1 (stereo not drawn) [TCMDC-143362] | 5.2 | 5.3 | 28.3063 | 60.2253 | 68.1396 | 1.9 | – | – | – | 4.0 | 48 | 4 | 72 | 24 | 1.852 | 28.3 | 60.2 | 68.1 | 73.518 | < 4 | MCC50 ([2]; RoK curve descriptor): 5.6 µM; AM/CELL NORM ([2]; Time 4, figure 4 A): -3.298; AM/CELL NORM ([2]; Time 24, figure 4 A): 28.3063; AM/CELL NORM ([2]; Time 48, figure 4 A): 60.2253; AM/CELL NORM ([2]; Time 72, figure 4 A): 68.1396; t50%_Cmax [2]: 48.0 h; t50%_MCC50 ([2]; at MCC50): 72.0 h; tlag_MCC50 ([2]; at MCC50): 24.0 h; MCC50 ([2]; figure 5, in µM): 5.556
